Experimental findings from ChEMBL document CHEMBL3399978, “Synthesis and optimization of picolinamide derivatives as a novel class of 11β-hydroxysteroid dehydrogenase type 1 (11β-HSD1) inhibitors” (Bioorg Med Chem Lett, 2015) are described below.

For orientation: IC50 means the concentration needed to halve the response being measured. Broadly, the clearance is a measure of how efficiently the substance is removed, as volume per time. One may read the bioavailability as dose-corrected exposure relative to a reference, in per cent. By inhibition in vivo is commonly meant the relative decrease from the control value, in per cent.

Data set [1] in a line: Metabolic stability in mouse liver microsomes assessed as compound remaining after 30 mins. The note with it: read-out: Stability. The data set is classed as ADME. In general terms: Microsomes from liver hold many membrane-bound enzymes, among them those of drug oxidation.
Data set [2] concerns the target T1, 11-beta-hydroxysteroid dehydrogenase 1 (Homo sapiens, UniProt P28845). The data set can be described thus: Inhibition of human 11beta-HSD1 using microsomal fraction and NADPH assessed as conversion of cortisone to cortisol by biochemical enzyme assay.
Data set [3] addresses T1, 11-beta-hydroxysteroid dehydrogenase 1. Briefly: Inhibition of human 11beta-HSD1 expressed in HEK293 cells using NADPH assessed as conversion of cortisone to cortisol by cell-based assay.
Data set [4] concerns the target 11-beta-hydroxysteroid dehydrogenase 1 (Mus musculus, UniProt P50172). Briefly: Inhibition of mouse 11beta-HSD1 using microsomal fraction and NADPH assessed as conversion of cortisone to cortisol by biochemical enzyme assay.
Data set [5] deals with T2, 11-beta-hydroxysteroid dehydrogenase type 2 (Homo sapiens, UniProt P80365).
T2 sequence (P80365 whole entry): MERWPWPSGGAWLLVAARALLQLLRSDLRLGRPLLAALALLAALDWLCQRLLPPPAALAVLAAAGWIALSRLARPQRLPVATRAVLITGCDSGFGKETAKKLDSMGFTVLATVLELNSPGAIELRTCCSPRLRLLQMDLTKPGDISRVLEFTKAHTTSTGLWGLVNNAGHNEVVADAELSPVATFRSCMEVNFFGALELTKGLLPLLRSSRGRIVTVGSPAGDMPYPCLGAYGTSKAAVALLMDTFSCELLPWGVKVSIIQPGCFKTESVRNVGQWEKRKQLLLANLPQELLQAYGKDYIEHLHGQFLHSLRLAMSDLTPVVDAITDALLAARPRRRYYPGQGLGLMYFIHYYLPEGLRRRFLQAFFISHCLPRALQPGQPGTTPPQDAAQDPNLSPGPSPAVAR
The data set can be described thus: Inhibition of human 11beta-HSD2 using microsomal fraction and NADPH assessed as conversion of cortisone to cortisol by biochemical enzyme assay.

The nature of data set [6]: Clearance in mouse at 5 mg/kg, iv. Also on record: dose 5 mg/kg, route intravenous. The following applies: in vivo. The data set is classed as ADME, organism-based.
Data set [7] can be described thus: Oral bioavailability in mouse at 20 mg/kg. The data set is classed as ADME, organism-based. The note with it: in vivo.
Data set [8] concerns Mus musculus. The data set can be described thus: Ex vivo inhibition of 11beta-HSD1 in male C57BL/6 mouse liver assessed as conversion of cortisone to cortisol at 30 mg/kg, po after 2 hrs by enzyme immunoassay. The data set is classed as functional. The note with it: C57BL/6, Liver.
The subject of data set [9] is Mus musculus. The data set can be described thus: Ex vivo inhibition of 11beta-HSD1 in male C57BL/6 mouse liver assessed as conversion of cortisone to cortisol at 30 mg/kg, po after 6 hrs by enzyme immunoassay. The data set is classed as functional. The following applies: C57BL/6, Liver.
Data set [10] concerns Mus musculus. Briefly: Ex vivo inhibition of 11beta-HSD1 in male C57BL/6 mouse epididymal fat assessed as conversion of cortisone to cortisol at 30 mg/kg, po after 2 hrs by enzyme immunoassay. The data set is classed as functional. The following applies: C57BL/6, 2 h.
The test system of data set [11] is Mus musculus. Briefly: Ex vivo inhibition of 11beta-HSD1 in male C57BL/6 mouse epididymal fat assessed as conversion of cortisone to cortisol at 30 mg/kg, po after 6 hrs by enzyme immunoassay. The data set is classed as functional. The following applies: C57BL/6, 6 h.
Data set [12] concerns Mus musculus. Briefly: Reduction in non-fasting blood glucose level in ob/ob type 2 diabetic mouse model at 10 mg/kg, po once daily after 10 days relative to vehicle treated control. The data set is classed as functional. The note with it: 240 h.
For data set [13], the system named is Mus musculus. The data set can be described thus: Reduction in LDL cholesterol level in ob/ob type 2 diabetic mouse model at 10 mg/kg, po once daily after 10 days relative to vehicle treated control. The data set is classed as functional, organism-based. Also on record: dose 10 mg/kg.
Data set [14] deals with Mus musculus. Briefly: Reduction in triglyceride level in ob/ob type 2 diabetic mouse model at 10 mg/kg, po once daily after 10 days relative to vehicle treated control. The data set is classed as functional, organism-based. Also on record: dose 10 mg/kg.
Data set [15] concerns Mus musculus. The data set can be described thus: Toxicity in ob/ob type 2 diabetic mouse model assessed as HDL cholesterol at 10 mg/kg, po once daily after 10 days relative to vehicle treated control. Also on record: dose 10 mg/kg, route oral. The note with it: in vivo, 240 h. The data set is classed as organism-based.
Data set [16] relates to Mus musculus. Briefly: Toxicity in ob/ob type 2 diabetic mouse model assessed as food intake at 10 mg/kg, po once daily after 10 days relative to vehicle treated control. The following applies: in vivo, 240 h. Also on record: dose 10 mg/kg, route oral. The data set is classed as organism-based.
For data set [17], the system named is Mus musculus. The data set can be described thus: Toxicity in ob/ob type 2 diabetic mouse model assessed as body weight at 10 mg/kg, po once daily after 10 days relative to vehicle treated control. The data set is classed as organism-based. Also on record: dose 10 mg/kg, route oral. The following applies: in vivo, 240 h.

Each structure is given as a SMILES string. The source made the active and inactive calls. The rule behind the calls is not given here.

11-beta-hydroxysteroid dehydrogenase 1 (Mus musculus, UniProt P50172), sequence (P50172 whole entry): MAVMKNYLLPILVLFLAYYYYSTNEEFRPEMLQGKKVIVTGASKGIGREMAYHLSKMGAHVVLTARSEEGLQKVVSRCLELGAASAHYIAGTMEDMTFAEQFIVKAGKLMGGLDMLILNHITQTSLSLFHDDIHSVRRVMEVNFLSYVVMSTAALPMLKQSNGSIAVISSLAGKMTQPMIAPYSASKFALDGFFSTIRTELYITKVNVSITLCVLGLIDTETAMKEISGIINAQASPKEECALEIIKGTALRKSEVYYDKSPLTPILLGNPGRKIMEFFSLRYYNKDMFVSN
T1 sequence (P28845 whole entry): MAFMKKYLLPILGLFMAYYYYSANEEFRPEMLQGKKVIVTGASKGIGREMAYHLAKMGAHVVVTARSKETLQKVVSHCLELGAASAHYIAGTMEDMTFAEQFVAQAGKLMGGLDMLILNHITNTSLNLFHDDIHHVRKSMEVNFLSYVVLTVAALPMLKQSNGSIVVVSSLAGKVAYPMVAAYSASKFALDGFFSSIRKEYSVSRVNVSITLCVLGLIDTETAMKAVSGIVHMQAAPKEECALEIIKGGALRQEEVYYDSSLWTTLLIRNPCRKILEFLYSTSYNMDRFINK

In the case of `N#Cc1ccc(N2CCN(c3cccc(C(=O)N[C@H]4C5CC6CC4C[C@](O)(C6)C5)n3)CC2)c(Cl)c1`, in [1], the remaining at 0.5 h turned out to be 88%.
For the compound `NC(=O)c1ccc(N2CCN(c3cccc(C(=O)N[C@H]4C5CC6CC4C[C@](O)(C6)C5)n3)CC2)cc1`, in data set [1], the remaining at 0.5 h worked out at 65%.
As to `O=C(N[C@H]1C2CC3CC1C[C@](O)(C3)C2)c1cccc(N2CCN(c3ccc(Cl)cc3)CC2)n1`, the remaining at 0.5 h in data set [1] was found to be 69%.
Same read-out and setting: as for `N#Cc1ccc(N2CCC(c3cccc(C(=O)N[C@H]4C5CC6CC4C[C@](O)(C6)C5)n3)CC2)nc1`, the figure is 52%.
Consider `C[C@@H]1CN(c2ccc(S(C)(=O)=O)cc2)CCN1c1cccc(C(=O)N[C@H]2C3CC4CC2C[C@](O)(C4)C3)n1`, for which the IC50 in data set [2] is 2.2 nM; in data set [3], 3.1 nM; in data set [4], 1.8 nM; in data set [5], above 10000 nM. Also, the remaining at 0.5 h in data set [1] amounted to 97%. In data set [6], this compound gave a clearance of 14.2 mL/min/kg. In data set [7], this compound yielded a bioavailability of 41%. In addition, the inhibition in vivo at 30 mg/kg stood at 85% with Mus musculus [8], 77% in the data set on Mus musculus [9], 95% in the data set on Mus musculus [10] and 86% with Mus musculus [11]. Further, 10 mg/kg produced 41% inhibition in vivo in the data set with Mus musculus [12]. For the same compound, the inhibition entry in the data set on Mus musculus [13] and with Mus musculus [14] was “Active” each time. Also, the Activity result with Mus musculus [15], with Mus musculus [16] and with Mus musculus [17] was “Non-toxic” throughout.
Regarding `CNC(=O)c1ccc(N2CCN(c3cccc(C(=O)N[C@H]4C5CC6CC4C[C@](O)(C6)C5)n3)[C@H](C)C2)cc1`, the remaining at 0.5 h in data set [1] stood at 61%.
Same read-out and setting: the result for `O=C(N[C@H]1C2CC3CC1C[C@](O)(C3)C2)c1cccc(N2CCN(c3ccc([N+](=O)[O-])cc3)CC2)n1` reads 74%.
Consider `N#Cc1ccc(N2CCN(c3cccc(C(=O)N[C@H]4C5CC6CC4C[C@](O)(C6)C5)n3)CC2)cc1`, for which, in data set [7], the bioavailability amounted to 5%. Moreover, the inhibition in vivo at 30 mg/kg with Mus musculus [9] and in the data set with Mus musculus [11] was below 10% throughout.
`C[C@@H]1CN(c2ccc(C(C)(C)O)cc2)CCN1c1cccc(C(=O)N[C@H]2C3CC4CC2C[C@](O)(C4)C3)n1`: the IC50 in data set [2] was 4.1 nM; in [3], 4.9 nM; in [4], 6.6 nM; in [5] it was above 10000 nM. Also, the remaining at 0.5 h in [1] came to 84%. The compound also gave a clearance in data set [6] of 7.67 mL/min/kg. In data set [7], the bioavailability turned out to be 32%. The inhibition in vivo at 30 mg/kg was 73% in the data set on Mus musculus [8], 58% with Mus musculus [9], 94% in the data set with Mus musculus [10] and 77% with Mus musculus [11].
As for `COc1ccc(N2CCN(c3cccc(C(=O)N[C@H]4C5CC6CC4C[C@](O)(C6)C5)n3)[C@H](C)C2)cc1`, the remaining at 0.5 h in [1] was 80%.
For the compound `C[C@H]1CN(c2ccc(S(C)(=O)=O)cc2)CCN1c1cccc(C(=O)N[C@H]2C3CC4CC2C[C@](O)(C4)C3)n1`, the IC50 in [2] was 4.2 nM; in data set [3], 6.8 nM. The remaining at 0.5 h in [1] worked out at 88%.
Consider `N#Cc1ccc(N2CCN(c3cccc(C(=O)N[C@H]4C5CC6CC4C[C@](O)(C6)C5)n3)CC2)cc1F`, for which the remaining at 0.5 h in data set [1] turned out to be 79%.
On the same count and under the same terms, as for `N#Cc1ccc(N2CCN(c3cccc(C(=O)N[C@H]4C5CC6CC4C[C@](O)(C6)C5)n3)CC2)nc1`, the figure is 81%; as for `O=C(N[C@H]1C2CC3CC1C[C@](O)(C3)C2)c1cccc(N2CCN(c3ccc(F)cc3)CC2)n1`, 73%.
Consider `O=C(N[C@H]1C2CC3CC1C[C@](O)(C3)C2)c1cccc(N2CCN(c3ccc(C(F)(F)F)cc3)CC2)n1`, for which, in data set [1], the remaining at 0.5 h was found to be 79%.
As for `N#Cc1ccc(C2CCN(c3cccc(C(=O)N[C@H]4C5CC6CC4C[C@](O)(C6)C5)n3)CC2)cc1`, the remaining at 0.5 h in data set [1] stood at 46%.
As for `C[C@H]1CN(c2ccc(C#N)cc2)CCN1c1cccc(C(=O)N[C@H]2C3CC4CC2C[C@](O)(C4)C3)n1`, the remaining at 0.5 h in data set [1] was found to be 82%.
`N#Cc1ccc(C2CCN(c3cccc(C(=O)N[C@H]4C5CC6CC4C[C@](O)(C6)C5)n3)CC2)nc1`: in data set [1], the remaining at 0.5 h came out at 63%.
Still for that read-out and setting: as for `COc1ccc(N2CCN(c3cccc(C(=O)N[C@H]4C5CC6CC4C[C@](O)(C6)C5)n3)CC2)cc1`, the figure is 86%; as for `Nc1ccc(N2CCN(c3cccc(C(=O)N[C@H]4C5CC6CC4C[C@](O)(C6)C5)n3)CC2)cc1`, 97%.
With `CS(=O)(=O)c1ccc(N2CCN(c3cccc(C(=O)N[C@H]4C5CC6CC4C[C@](O)(C6)C5)n3)CC2)cc1`, the IC50 in [2] is 1.6 nM; in data set [3], 3.9 nM; in data set [4], 2.5 nM; in [5], above 10000 nM. Moreover, in [1], the remaining at 0.5 h is 87%. Besides, in data set [6], the clearance is 29.7 mL/min/kg. Further, the bioavailability in [7] was determined as 17%. Besides, the inhibition in vivo at 30 mg/kg stood at 53% in the data set with Mus musculus [8], 15% in the data set with Mus musculus [9], 70% in the data set with Mus musculus [10] and 22% with Mus musculus [11].
`COc1ccc(N2CCN(c3cccc(C(=O)N[C@H]4C5CC6CC4C[C@](O)(C6)C5)n3)[C@@H](C)C2)cc1`: in data set [1], the remaining at 0.5 h turned out to be 77%.
Still for that read-out and setting: as for `N#Cc1ccc(N2CCC(c3cccc(C(=O)N[C@H]4C5CC6CC4C[C@](O)(C6)C5)n3)CC2)cc1`, the figure is 58%; as for `C[C@@H]1CN(c2ccc(C#N)cc2)CCN1c1cccc(C(=O)N[C@H]2C3CC4CC2C[C@](O)(C4)C3)n1`, 84%; as for `NC(=O)c1ccc(N2CCN(c3cccc(C(=O)N[C@H]4C5CC6CC4C[C@](O)(C6)C5)n3)CC2)cc1F`, 28%.
In the case of `C[C@@H]1CN(c2ccc(C(N)=O)cc2)CCN1c1cccc(C(=O)N[C@H]2C3CC4CC2C[C@](O)(C4)C3)n1`, in data set [1], the remaining at 0.5 h worked out at 57%.
On the same count and under the same terms, the result for `NC(=O)c1ccc(N2CCN(c3cccc(C(=O)N[C@H]4C5CC6CC4C[C@](O)(C6)C5)n3)CC2)c(Cl)c1` reads 32%; that for `Cc1ccc(N2CCN(c3cccc(C(=O)N[C@H]4C5CC6CC4C[C@](O)(C6)C5)n3)CC2)cc1`, 74%.
